Patent US9663473B2 (Actelion Pharmaceuticals Ltd, priority 2013, dated 2017)
Counter-ions that a name gives are not always drawn.

Target: T1, recombinant human ALX receptor (Homo sapiens, UniProt P25090)
T1 construct: expressed in transfected cells; host or cells: HEK293 (HEK293-hALXR-Gα16)
T1 sequence (P25090 1-351): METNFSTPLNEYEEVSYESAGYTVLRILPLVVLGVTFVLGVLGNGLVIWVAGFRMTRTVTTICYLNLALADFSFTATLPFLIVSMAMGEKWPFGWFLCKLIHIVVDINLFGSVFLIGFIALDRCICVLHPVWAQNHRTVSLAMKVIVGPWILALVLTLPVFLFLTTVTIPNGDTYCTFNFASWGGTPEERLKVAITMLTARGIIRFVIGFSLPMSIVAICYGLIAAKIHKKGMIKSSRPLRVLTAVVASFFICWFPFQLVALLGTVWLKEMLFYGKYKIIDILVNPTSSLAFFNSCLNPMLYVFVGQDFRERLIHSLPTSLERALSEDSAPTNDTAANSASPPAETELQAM
Assay: Intracellular calcium measurements (FLIPR), ALX receptor agonistic activity
Format: cell-based
Conditions: HEK293-hALXR-Gα16 cells, Fluo-4 calcium signal, normalized to WKYMVm 10 nM
Description: The ALX receptor agonistic activity of the compounds of formula (I) is determined in accordance with the following experimental method.
Intracellular Calcium Measurements:
Cells expressing recombinant human ALX receptor and the G-protein Gα16 (HEK293-hALXR-Gα16) were grown to 80% confluency in Growing Medium (GM). Cells were detached from culture dishes with a cell dissociation buffer (Invitrogen, 13151-014), and collected by centrifugation at 1′000 rpm at rt for 5 min in Assay Buffer (AB) (equal parts of Hank's BSS (Gibco, 14065-049) and DMEM without Phenol Red (Gibco, 11880-028)). After 60 min incubation at 37° C. under 5% CO2 in AB supplemented with 1 μM Fluo-4 (AM) (Invitrogen, F14202) and 20 mM HEPES (Gibco, 15630-056), the cells were washed and resuspended in AB. They were then seeded onto 384-well FLIPR assay plates (Greiner, 781091) at 50′000 cells in 70 μl per well and sedimented by centrifugation at 1′000 rpm for 1 min. Stock solutions of test compounds were made up at a concentration of 10 mM in DMSO, and serially diluted in AB to concentrations required for activation dose response curves. WKYMVm (Phoenix Peptides) was used as a reference agonist. A FLIPR Tetra instrument (Molecular Devices) was operated according to the manufacturer's standard instructions, adding 4 μl of test compound dissolved at 10 mM in DMSO and diluted prior to the experiment in assay buffer to obtain the desired final concentration. Changes in fluorescence were monitored before and after the addition of test compounds at lex=488 nm and lem=540 nm. Emission peak values above base level after compounds addition were exported after base line subtraction. Values were normalized to high-level control (WKYMVm compound, 10 nM final concentration) after subtraction of the base line value (AB addition).

Row | Compound | EC50 [µM]
1 | C[C@]1(O)CC[C@H](NC(=O)NC(Cc2ccc(Br)c(F)c2)c2nc3ccccc3[nH]2)CC1 (mixture of isomers) [Example 231, 1-(1-(1H-Benzo[d]imidazol-2-yl)-2-(4-bromo-3-fluorophenyl)ethyl)-3-(trans-4-hydroxy-4-methylcyclohexyl)urea] | 0.0052
2 | COc1ccc(C[C@@H](NC(=O)NC(CCO)c2ccccc2)c2nc3ccccc3[nH]2)cc1 (stereo partly drawn) [Example 343, 1-((R)-1-(1H-Benzo[d]imidazol-2-yl)-2-(4-methoxyphenyl)ethyl)-3-(3-hydroxy-1-phenylpropyl)urea] | 0.04
3 | COc1ccc(C[C@@H](NC(=O)N2CC3CCC2CN3C(=O)OC(C)(C)C)c2nc3ccccc3[nH]2)cc1 (stereo partly drawn) [Example 112, tert-Butyl 5-(((R)-1-(1H-benzo[d]imidazol-2-yl)-2-(4-methoxyphenyl)ethyl)carbamoyl)-2,5-diazabicyclo[2.2.2]octane-2-carboxylate] | 0.109
4 | O=C(NC(Cc1ccc(Br)cc1F)c1nc2ccccc2[nH]1)N[C@H]1CC[C@H](O)CC1 (single isomer, unassigned; ent-1) [Example 313, 1-(1-(1H-Benzo[d]imidazol-2-yl)-2-(4-bromo-2-fluorophenyl)ethyl)-3-(trans-4-hydroxycyclohexyl)urea (ent-1)] | 0.0024
5 | O=C(N[C@H](Cc1ccc(Cl)cc1)c1nc2ccccc2[nH]1)N[C@H]1CC[C@H](O)CC1 [Example 123, 1-((R)-1-(1H-Benzo[d]imidazol-2-yl)-2-(4-chlorophenyl)ethyl)-3-(trans-4-hydroxycyclohexyl)urea] | 0.044
6 | COc1ccc(C[C@@H](NC(=O)N2CC3CC2CN3C(=O)OC(C)(C)C)c2nc3ccccc3[nH]2)cc1 (stereo partly drawn) [Example 382, tert-Butyl 5-(((R)-1-(1H-benzo[d]imidazol-2-yl)-2-(4-methoxyphenyl)ethyl)carbamoyl)-2,5-diazabicyclo[2.2.1]heptane-2-carboxylate] | 1.9
7 | COc1ccc(C[C@@H](NC(=O)N[C@@H](Cc2ccccc2)C(N)=O)c2nc3ccccc3[nH]2)cc1 [Example 208, (S)-2-(3-((R)-1-(1H-Benzo[d]imidazol-2-yl)-2-(4-methoxyphenyl)ethyl)ureido)-3-phenylpropanamide] | 0.021
8 | COc1ccc(C[C@@H](NC(=O)N2CCN(C)CC2)c2nc3ccccc3[nH]2)cc1 [Example 136, (R)—N-(1-(1H-Benzo[d]imidazol-2-yl)-2-(4-methoxyphenyl)ethyl)-4-methylpiperazine-1-carboxamide] | 0.387
9 | COc1ccc(CC(NC(=O)NCc2ccc(Cl)cc2)c2nc3ccccc3[nH]2)cc1 (stereo not drawn) [Example 43, 1-(1-(1H-Benzo[d]imidazol-2-yl)-2-(4-methoxyphenyl)ethyl)-3-(4-chlorobenzyl)urea] | 0.611
10 | COc1c(F)cc(CC(NC(=O)N[C@H]2CC[C@](C)(O)CC2)c2nc3ccccc3[nH]2)cc1F (mixture of isomers) [Example 243, 1-(1-(1H-Benzo[d]imidazol-2-yl)-2-(3,5-difluoro-4-methoxyphenyl)ethyl)-3-(trans-4-hydroxy-4-methylcyclohexyl)urea] | 0.155
11 | COC(=O)N1CCC(NC(=O)N[C@H](Cc2ccc(OC)cc2)c2nc3ccccc3[nH]2)C1 (stereo partly drawn) [Example 158, Methyl 3-(3-((R)-1-(1H-benzo[d]imidazol-2-yl)-2-(4-methoxyphenyl)ethyl)ureido)pyrrolidine-1-carboxylate] | 0.158
12 | COc1ccc(C[C@@H](NC(=O)NC(C)c2ccc(OC(F)(F)F)cc2)c2nc3ccccc3[nH]2)cc1 (stereo partly drawn) [Example 381, 1-((R)-1-(1H-Benzo[d]imidazol-2-yl)-2-(4-methoxyphenyl)ethyl)-3-(1-(4-(trifluoromethoxy)phenyl)ethyl)urea] | 1.17
13 | COc1ccc(C[C@@H](NC(=O)N[C@H]2CC[C@@H](O)CC2)c2nc3ccccc3[nH]2)cc1 [Example 183, 1-((R)-1-(1H-Benzo[d]imidazol-2-yl)-2-(4-methoxyphenyl)ethyl)-3-(cis-4-hydroxycyclohexyl)urea] | 0.058
14 | COc1ccc(C[C@@H](NC(=O)NC2CCNC(=O)C2)c2nc3ccccc3[nH]2)cc1 (stereo partly drawn) [Example 174, 1-((R)-1-(1H-Benzo[d]imidazol-2-yl)-2-(4-methoxyphenyl)ethyl)-3-(2-oxopiperidin-4-yl)urea] | 0.288
15 | O=C(NC(Cc1ccc(C(F)(F)F)cc1F)c1nc2ccccc2[nH]1)N[C@H]1CC[C@H](O)CC1 (single isomer, unassigned; ent-1) [Example 399, 1-(1-(1H-Benzo[d]imidazol-2-yl)-2-(2-fluoro-4-(trifluoromethyl)phenyl)ethyl)-3-(trans-4-hydroxycyclohexyl)urea (ent-1)] | 1.7
16 | COc1ccc(CC(NC(=O)N[C@H]2CC[C@H](O)CC2)c2nc3cc(F)ccc3[nH]2)c(F)c1F (single isomer, unassigned; ent-2) [Example 376, 1-(2-(2,3-Difluoro-4-methoxyphenyl)-1-(5-fluoro-1H-benzo[d]imidazol-2-yl)ethyl)-3-(trans-4-hydroxycyclohexyl)urea (ent-2)] | 0.067
17 | COc1ccc(C[C@@H](NC(=O)NC2CCc3ccccc3C2)c2nc3ccccc3[nH]2)cc1 (stereo partly drawn) [Example 15, 1-((R)-1-(1H-Benzo[d]imidazol-2-yl)-2-(4-methoxyphenyl)ethyl)-3-(1,2,3,4-tetrahydronaphthalen-2-yl)urea hydrochloride] | 0.059
18 | O=C(N[C@H](Cc1ccc(Br)cc1)c1nc2ccc(C(F)(F)F)cc2[nH]1)N[C@H]1CC[C@H](O)CC1 [Example 222, 1-((R)-2-(4-Bromophenyl)-1-(6-(trifluoromethyl)-1H-benzo[d]imidazol-2-yl)ethyl)-3-(trans-4-hydroxycyclohexyl)urea] | 0.0078
19 | COc1ccc(CC(NC(=O)Nc2cc(C)nn2-c2ccccc2)c2nc3ccccc3[nH]2)cc1 (stereo not drawn) [Example 408, 1-(1-(1H-benzo[d]imidazol-2-yl)-2-(4-methoxyphenyl)ethyl)-3-(3-methyl-1-phenyl-1H-pyrazol-5-yl)urea] | 0.02
20 | COc1ccc(CC(NC(=O)N[C@@H](C)c2cccc(Cl)c2)c2nc3ccccc3[nH]2)cc1 (stereo partly drawn) [Example 360, 1-(1-(1H-Benzo[d]imidazol-2-yl)-2-(4-methoxyphenyl)ethyl)-3-((S)-1-(3-chlorophenyl)ethyl)urea] | 0.561
21 | COc1ccc(C[C@@H](NC(=O)N[C@H](CC(=O)OC(C)(C)C)c2ccccc2)c2nc3ccccc3[nH]2)cc1 [Example 378, (R)-tert-Butyl 3-(3-((R)-1-(1H-benzo[d]imidazol-2-yl)-2-(4-methoxyphenyl)ethyl)ureido)-3-phenylpropanoate] | 1.47
22 | COc1ccc(C[C@@H](NC(=O)NC2CC3CCC2C3)c2nc3ccccc3[nH]2)cc1 (stereo partly drawn) [Example 25, 1-((R)-1-(1H-Benzo[d]imidazol-2-yl)-2-(4-methoxyphenyl)ethyl)-3-(bicyclo[2.2.1]heptan-2-yl)urea] | 0.0097
23 | COc1ccc(C[C@@H](NC(=O)N[C@H]2CC[C@H](O)CC2)c2nc3ccccc3[nH]2)cc1 [Example 4, 1-((R)-1-(1H-Benzo[d]imidazol-2-yl)-2-(4-methoxyphenyl)ethyl)-3-(trans-4-hydroxycyclohexyl)urea] | 0.0078
24 | COc1ccc(CC(NC(=O)NC23CCC(O)(CC2)CC3)c2nc3ccccc3[nH]2)cc1F (single isomer, unassigned; ent-1) [Example 257, 1-(1-(1H-Benzo[d]imidazol-2-yl)-2-(3-fluoro-4-methoxyphenyl)ethyl)-3-(4-hydroxybicyclo[2.2.2]octan-1-yl)urea (ent-1)] | 0.002
25 | O=C(NC(Cc1ccc(Br)c(F)c1)c1nc2ccc(F)cc2[nH]1)NC12CCC(O)(CC1)CC2 (single isomer, unassigned; ent-1) [Example 400, 1-(2-(4-bromo-3-fluorophenyl)-1-(6-fluoro-1H-benzo[d]imidazol-2-yl)ethyl)-3-(4-hydroxybicyclo[2.2.2]octan-1-yl)urea (ent-1)] | 0.0026
26 | COc1ccc(C[C@@H](NC(=O)Nc2ccccc2OC)c2nc3ccccc3[nH]2)cc1 [Example 178, (R)-1-(1-(1H-Benzo[d]imidazol-2-yl)-2-(4-methoxyphenyl)ethyl)-3-(2-methoxyphenyl)urea] | 0.699
27 | COc1ccc(C[C@@H](NC(=O)NCCc2ccc(C)cc2)c2nc3ccccc3[nH]2)cc1 [Example 66, (R)-1-(1-(1H-Benzo[d]imidazol-2-yl)-2-(4-methoxyphenyl)ethyl)-3-(4-methylphenethyl)urea hydrochloride] | 0.438
